Results: ChEMBL document CHEMBL1240356, “Efficacy profiles of daptomycin for treatment of invasive and noninvasive pulmonary infections with Streptococcus pneumoniae” (2010)
Activity calls are given as the source filed them. No cut-off for these calls is given here.

Key:
Streptococcus pneumoniae [1] = test: Antibacterial activity against low dose 5 x 10^6 CFU Streptococcus pneumoniae serotype 2 infected in semitherapeutic C57BL/6 mouse model assessed as reduction of bacteremia at 6 mg/kg, ip measured after 5 day post infection; assay type: functional, organism-based; parameters: dose 6 mg/kg
Streptococcus pneumoniae [2] = test: Antibacterial activity against 1.5 x 10^7 CFU Streptococcus pneumoniae serotype 19 infected in therapeutic C57BL/6 mouse model assessed as increase in compound level in BALF at 6 mg/kg, ip measured on day 3 post infection; assay type: functional, organism-based; parameters: dose 6 mg/kg

For CCCCCCCCCC(=O)N[C@@H](Cc1c[nH]c2ccccc12)C(=O)N[C@H](CC(N)=O)C(=O)N[C@@H](CC(=O)O)C(=O)N[C@@H]1C(=O)NCC(=O)N[C@@H](CCCN)C(=O)N[C@@H](CC(=O)O)C(=O)N[C@H](C)C(=O)N[C@@H](CC(=O)O)C(=O)NCC(=O)N[C@H](CO)C(=O)N[C@@H]([C@H](C)CC(=O)O)C(=O)N[C@@H](CC(=O)c2ccccc2N)C(=O)O[C@@H]1C, the Activity (Streptococcus pneumoniae [1]) was “Active” and the Activity (Streptococcus pneumoniae [2]) was “Active”.
